Experimental data taken from patent US12509447B2, “Small molecule compound” (Technoderma Medicines Pte Ltd, priority 2019, dated 2025).

Tests used:
Format in all cases: biochemical
JAK3 = biological target: T1, JAK3 (Homo sapiens, UniProt P52333); assay: Inhibition of JAK kinase activity, EZ Reader microfluidic phosphorylation of peptide substrate: JAK3; settings: JAK3 kinase 1 nM; highest final concentration 10 μM, 1:3 serial dilution, 8 points, duplicates
T1 sequence (P52333 1-1124): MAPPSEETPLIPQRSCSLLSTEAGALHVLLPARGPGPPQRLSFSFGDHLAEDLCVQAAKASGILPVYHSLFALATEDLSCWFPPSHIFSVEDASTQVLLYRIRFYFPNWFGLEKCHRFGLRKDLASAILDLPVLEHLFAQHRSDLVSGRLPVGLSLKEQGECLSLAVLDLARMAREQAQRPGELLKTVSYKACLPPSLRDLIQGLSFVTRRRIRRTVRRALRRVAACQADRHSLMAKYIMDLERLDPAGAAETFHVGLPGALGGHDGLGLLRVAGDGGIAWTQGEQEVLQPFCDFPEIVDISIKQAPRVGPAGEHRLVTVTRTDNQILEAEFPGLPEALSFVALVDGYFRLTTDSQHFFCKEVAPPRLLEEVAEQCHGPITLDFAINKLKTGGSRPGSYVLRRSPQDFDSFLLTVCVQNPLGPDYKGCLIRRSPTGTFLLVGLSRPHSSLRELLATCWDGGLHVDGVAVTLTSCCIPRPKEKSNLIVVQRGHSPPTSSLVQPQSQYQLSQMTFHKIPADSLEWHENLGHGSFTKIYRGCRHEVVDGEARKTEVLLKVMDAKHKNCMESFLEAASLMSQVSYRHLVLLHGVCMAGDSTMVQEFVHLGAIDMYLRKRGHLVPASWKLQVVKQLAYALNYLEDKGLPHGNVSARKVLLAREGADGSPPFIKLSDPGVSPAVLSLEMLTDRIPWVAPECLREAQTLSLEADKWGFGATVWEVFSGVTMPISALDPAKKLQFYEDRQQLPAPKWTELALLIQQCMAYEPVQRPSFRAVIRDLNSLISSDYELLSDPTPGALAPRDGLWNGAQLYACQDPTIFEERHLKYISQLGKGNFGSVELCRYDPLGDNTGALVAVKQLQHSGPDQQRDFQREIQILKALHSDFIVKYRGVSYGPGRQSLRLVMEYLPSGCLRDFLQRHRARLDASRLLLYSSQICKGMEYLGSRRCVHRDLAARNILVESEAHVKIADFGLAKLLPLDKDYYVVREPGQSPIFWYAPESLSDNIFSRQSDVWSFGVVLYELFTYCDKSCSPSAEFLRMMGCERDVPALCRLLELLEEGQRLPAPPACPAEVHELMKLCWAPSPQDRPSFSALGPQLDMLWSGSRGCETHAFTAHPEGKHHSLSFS
Procedure, shortened: (§1)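 Microfluidic mobility-shift assay reading fluorescent peptide substrate and product; kinases at 20 nM (JAK1) or 1 nM (JAK2, JAK3, Tyk2) in pH 7.4 HEPES with 10 mM MgCl2, run at room temperature to 20-30% conversion, then stopped with EDTA. Compounds tested from 10 μM top, 1:3 over 8 points in duplicate; IC50 fitted from % conversion.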

JAK1 = JAK1 (Homo sapiens, UniProt P23458); assay: Inhibition of JAK kinase activity, EZ Reader microfluidic phosphorylation of peptide substrate: JAK1; settings: JAK1 kinase 20 nM; highest final concentration 10 μM, 1:3 serial dilution, 8 points, duplicates
Sequence of JAK1 (P23458 whole entry): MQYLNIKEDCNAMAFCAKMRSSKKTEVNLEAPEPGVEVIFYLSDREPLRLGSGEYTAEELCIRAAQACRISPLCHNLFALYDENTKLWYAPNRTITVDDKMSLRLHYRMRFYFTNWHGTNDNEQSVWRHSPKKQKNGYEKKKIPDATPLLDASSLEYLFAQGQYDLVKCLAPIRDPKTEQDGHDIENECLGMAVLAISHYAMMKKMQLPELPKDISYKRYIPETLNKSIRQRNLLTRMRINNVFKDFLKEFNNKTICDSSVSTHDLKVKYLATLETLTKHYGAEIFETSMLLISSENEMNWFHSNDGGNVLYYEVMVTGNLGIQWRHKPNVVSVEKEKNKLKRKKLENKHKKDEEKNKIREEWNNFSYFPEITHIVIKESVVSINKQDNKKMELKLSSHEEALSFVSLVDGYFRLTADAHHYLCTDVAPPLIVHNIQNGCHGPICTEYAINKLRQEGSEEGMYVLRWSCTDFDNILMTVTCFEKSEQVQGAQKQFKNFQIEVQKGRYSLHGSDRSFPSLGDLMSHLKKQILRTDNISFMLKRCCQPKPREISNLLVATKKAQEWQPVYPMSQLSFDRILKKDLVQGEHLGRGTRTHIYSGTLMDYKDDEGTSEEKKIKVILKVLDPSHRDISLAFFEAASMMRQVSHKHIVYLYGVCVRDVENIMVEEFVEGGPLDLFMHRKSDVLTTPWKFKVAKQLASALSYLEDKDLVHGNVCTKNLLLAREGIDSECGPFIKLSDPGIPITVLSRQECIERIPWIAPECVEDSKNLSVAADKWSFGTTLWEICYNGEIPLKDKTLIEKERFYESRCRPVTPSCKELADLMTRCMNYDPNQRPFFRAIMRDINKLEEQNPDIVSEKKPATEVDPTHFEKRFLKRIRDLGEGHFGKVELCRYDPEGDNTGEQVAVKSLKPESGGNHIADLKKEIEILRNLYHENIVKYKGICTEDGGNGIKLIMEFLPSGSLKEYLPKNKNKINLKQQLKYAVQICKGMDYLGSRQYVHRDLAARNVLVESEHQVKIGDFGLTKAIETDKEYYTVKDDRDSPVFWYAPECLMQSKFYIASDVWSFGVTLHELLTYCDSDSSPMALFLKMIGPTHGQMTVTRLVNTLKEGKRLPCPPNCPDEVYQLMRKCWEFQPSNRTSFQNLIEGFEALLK
Procedure, shortened: as §1

JAK2 = JAK2 (Homo sapiens, UniProt O60674); assay: Inhibition of JAK kinase activity, EZ Reader microfluidic phosphorylation of peptide substrate: JAK2; settings: JAK2 kinase 1 nM; highest final concentration 10 μM, 1:3 serial dilution, 8 points, duplicates
Sequence of JAK2 (O60674 whole entry): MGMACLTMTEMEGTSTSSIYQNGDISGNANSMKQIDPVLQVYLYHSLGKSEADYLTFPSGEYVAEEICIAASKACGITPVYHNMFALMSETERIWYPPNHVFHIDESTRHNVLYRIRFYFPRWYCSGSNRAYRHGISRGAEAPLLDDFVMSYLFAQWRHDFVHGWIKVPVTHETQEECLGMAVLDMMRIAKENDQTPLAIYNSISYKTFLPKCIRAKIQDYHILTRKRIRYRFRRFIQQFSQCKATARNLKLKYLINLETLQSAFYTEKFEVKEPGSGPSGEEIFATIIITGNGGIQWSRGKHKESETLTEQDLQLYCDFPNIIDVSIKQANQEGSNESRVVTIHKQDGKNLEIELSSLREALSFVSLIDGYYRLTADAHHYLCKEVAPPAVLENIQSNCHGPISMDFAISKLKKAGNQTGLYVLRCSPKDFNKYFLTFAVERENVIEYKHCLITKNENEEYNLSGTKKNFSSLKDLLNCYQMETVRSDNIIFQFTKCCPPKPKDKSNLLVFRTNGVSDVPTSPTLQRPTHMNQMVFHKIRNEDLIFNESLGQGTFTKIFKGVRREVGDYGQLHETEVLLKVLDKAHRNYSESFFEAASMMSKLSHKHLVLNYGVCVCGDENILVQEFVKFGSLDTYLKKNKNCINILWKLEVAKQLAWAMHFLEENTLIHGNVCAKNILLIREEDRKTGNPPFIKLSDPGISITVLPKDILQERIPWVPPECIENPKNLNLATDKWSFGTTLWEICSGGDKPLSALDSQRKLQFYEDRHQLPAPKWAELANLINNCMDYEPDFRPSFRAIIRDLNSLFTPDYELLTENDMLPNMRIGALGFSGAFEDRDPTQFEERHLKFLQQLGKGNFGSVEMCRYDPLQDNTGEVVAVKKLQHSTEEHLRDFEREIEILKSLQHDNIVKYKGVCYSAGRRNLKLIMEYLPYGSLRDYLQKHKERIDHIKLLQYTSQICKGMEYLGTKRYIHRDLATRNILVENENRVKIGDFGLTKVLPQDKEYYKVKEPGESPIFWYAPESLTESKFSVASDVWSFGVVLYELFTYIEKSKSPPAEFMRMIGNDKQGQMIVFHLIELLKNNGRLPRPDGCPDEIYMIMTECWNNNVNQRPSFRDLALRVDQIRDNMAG
Procedure, shortened: as §1

Tyk2 = Tyk2 (Homo sapiens, UniProt P29597); assay: Inhibition of JAK kinase activity, EZ Reader microfluidic phosphorylation of peptide substrate: Tyk2; settings: Tyk2 kinase 1 nM; highest final concentration 10 μM, 1:3 serial dilution, 8 points, duplicates
Sequence of Tyk2 (P29597 whole entry): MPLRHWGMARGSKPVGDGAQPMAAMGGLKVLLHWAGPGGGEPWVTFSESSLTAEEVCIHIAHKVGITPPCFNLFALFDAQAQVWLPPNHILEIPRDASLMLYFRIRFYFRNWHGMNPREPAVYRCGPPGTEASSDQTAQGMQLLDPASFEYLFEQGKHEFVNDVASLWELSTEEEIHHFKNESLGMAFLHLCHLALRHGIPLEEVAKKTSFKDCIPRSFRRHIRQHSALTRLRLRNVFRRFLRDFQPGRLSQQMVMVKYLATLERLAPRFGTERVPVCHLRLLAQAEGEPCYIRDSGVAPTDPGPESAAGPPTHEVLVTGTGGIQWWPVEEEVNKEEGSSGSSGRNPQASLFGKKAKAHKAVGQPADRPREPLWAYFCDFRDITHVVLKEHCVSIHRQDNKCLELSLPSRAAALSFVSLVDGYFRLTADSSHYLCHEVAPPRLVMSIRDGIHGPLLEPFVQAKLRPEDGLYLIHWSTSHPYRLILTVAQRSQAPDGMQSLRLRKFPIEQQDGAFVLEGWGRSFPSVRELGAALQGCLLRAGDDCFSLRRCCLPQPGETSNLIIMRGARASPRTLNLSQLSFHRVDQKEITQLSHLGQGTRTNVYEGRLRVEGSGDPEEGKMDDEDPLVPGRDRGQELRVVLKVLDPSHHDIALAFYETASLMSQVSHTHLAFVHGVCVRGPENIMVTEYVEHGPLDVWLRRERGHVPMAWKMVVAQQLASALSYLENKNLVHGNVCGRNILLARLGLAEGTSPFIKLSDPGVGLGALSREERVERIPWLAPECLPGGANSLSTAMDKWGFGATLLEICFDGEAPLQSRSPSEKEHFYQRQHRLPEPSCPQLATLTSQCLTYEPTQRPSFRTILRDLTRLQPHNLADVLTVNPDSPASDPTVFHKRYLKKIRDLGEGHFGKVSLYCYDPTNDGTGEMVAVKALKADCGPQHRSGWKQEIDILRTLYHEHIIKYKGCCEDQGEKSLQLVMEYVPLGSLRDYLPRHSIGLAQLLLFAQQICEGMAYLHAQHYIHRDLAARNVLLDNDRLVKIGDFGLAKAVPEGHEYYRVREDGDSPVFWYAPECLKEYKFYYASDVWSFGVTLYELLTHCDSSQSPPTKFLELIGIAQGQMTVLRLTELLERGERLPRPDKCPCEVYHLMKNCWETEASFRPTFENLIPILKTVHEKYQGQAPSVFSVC
Procedure, shortened: as §1

| IC50 (JAK3) | IC50 (JAK1) | IC50 (JAK2) | IC50 (Tyk2) | Structure (SMILES) |
| --- | --- | --- | --- | --- |
| 1 to 10 µM | < 0.1 µM | 0.1 to 1 µM | < 0.1 µM | Cn1cc(Nc2nccc(-c3ccn(C4(CC#N)CN(C(=O)CC(F)(F)F)C4)c3)n2)cn1 [TDM-180778] |
| 1 to 10 µM | 0.1 to 1 µM | < 0.1 µM | < 0.1 µM | CCS(=O)(=O)N1CC(CC#N)(n2ccc(-c3ccnc(Nc4cnn(C)c4)n3)c2)C1 [TDM-180771, 2-(1-(ethylsulfonyl)-3-(3-(2-((1-methyl-1H-pyrazol-4-yl)amino)pyrimidin-4-yl)-1H-pyrrol-1-yl)azetidinpyridin-3-yl)acetonitrile] |
| ≥ 10 µM | 1 to 10 µM | 0.1 to 1 µM | 0.1 to 1 µM | CCCCS(=O)(=O)N1CC(CC#N)(n2cc(-c3ccnc(Nc4cnn(C)c4)n3)cn2)C1 [TDM-180807, 2-(1-(butylsulfonyl)-3-(4-(2-((1-methyl-1H-pyrazol-4-yl)amino)pyrimidin-4-yl)-1H-pyrazol-1-yl)azetidin-3-yl)acetonitrile] |
| ≥ 10 µM | 0.1 to 1 µM | 0.1 to 1 µM | 0.1 to 1 µM | Cn1cc(Nc2nccc(-c3ccn(C4(CC#N)CN(C(=O)C5CC5)C4)c3)n2)cn1 [TDM-180772, 2-(1-(cyclopropanecarbonyl)-3-(3-(2-((1-methyl-1H-pyrazol-4-yl)amino)pyrimidin-4-yl)-1H-pyrrol-1-yl)azetidinpyridin-3-yl)acetonitrile] |
| 1 to 10 µM | 0.1 to 1 µM | 0.1 to 1 µM | 0.1 to 1 µM | Cn1cc(Nc2nccc(-c3cnn(C4(CC#N)CN(C(=O)C5CC5(F)F)C4)c3)n2)cn1 (stereo not drawn) [TDM-180726, 2-(1-(2,2-difluorocyclo-1-carbonyl)-3-(4-(2-((1-methyl-1H-pyrazol-4-yl)amino)pyrimidin-4-yl)-1H-pyrazol-1-yl)azetidin-3-yl)acetonitrile] |
| ≥ 10 µM | 0.1 to 1 µM | 0.1 to 1 µM | 0.1 to 1 µM | Cn1cc(Nc2nccc(-c3cnn(C4(CC#N)CN(S(=O)(=O)C5CCOCC5)C4)c3)n2)cn1 [TDM-180797, 2-(3-(4-(2-((1-methyl-1H-pyrazol-4-yl)amino)pyrimidin-4-yl)-1H-pyrazol-1-yl)-1-((tetrahydro-2H-pyran-4-yl)sulfonyl)azetidin-3-yl)acetonitrile] |
| ≥ 10 µM | 0.1 to 1 µM | 0.1 to 1 µM | 0.1 to 1 µM | CCCS(=O)(=O)N1CC(CC#N)(n2ccc(-c3ccnc(Nc4cnn(C)c4)n3)c2)C1 [TDM-180785, 2-(3-(3-(2-((1-methyl-1H-pyrazol-4-yl)amino)pyrimidin-4-yl)-1H-pyrrol-1-yl)-1-(propylsulfonyl)azetidinpyridin-3-yl)acetonitrile] |
| ≥ 10 µM | 1 to 10 µM | 0.1 to 1 µM | 0.1 to 1 µM | CCOCCS(=O)(=O)N1CC(CC#N)(n2cc(-c3ccnc(Nc4cnn(C)c4)n3)cn2)C1 [TDM-180796, 2-(1-((2-ethoxyethyl)sulfonyl)-3-(4-(2-((1-methyl-1H-pyrazol-4-yl)amino)pyrimidin-4-yl)-1H-pyrazol-1-yl)azetidin-3-yl)acetonitrile] |

Further lines, the compound ahead of its results:

| Structure (SMILES) | IC50 (JAK3) | IC50 (JAK1) | IC50 (JAK2) | IC50 (Tyk2) |
| --- | --- | --- | --- | --- |
| Cn1cc(Nc2nccc(-c3cnn(C4CCN(C(=O)CC(F)(F)F)CC4)c3)n2)cn1 [TDM-180678, 3,3,3-trifluoro-1-(4-(4-(2-((1-methyl-1H-pyrazol-4-yl)amino)pyrimidin-4-yl)-1H-pyrazol-1-yl)piperidin-1-yl)propan-1-one] | ≥ 10 µM | ≥ 10 µM | ≥ 10 µM | ≥ 10 µM |
| CCS(=O)(=O)N1CCC(n2cc(-c3ccnc(Nc4cnn(C)c4)n3)cn2)C1 (stereo not drawn) [TDM-180647, 4-(1-(1-(ethylsulfonyl)pyrrolidine-3-yl)-1H-pyrazol-4-yl)-N-(1-methyl-1H-pyrazol-4-yl)pyrimidin-2-amine] | 1 to 10 µM | ≥ 10 µM | 1 to 10 µM | ≥ 10 µM |
| Cn1cc(Nc2nccc(-c3cnn(C4CN(C(=O)C5CC5(F)F)C4)c3)n2)cn1 (stereo not drawn) [TDM-180668, (2,2-difluorocyclopropyl)(3-(4-(2-((1-methyl-1H-pyrazol-4-yl)amino)pyrimidin-4-yl)-1H-pyrazol-1-yl)azetidin-1-yl)ketone] | ≥ 10 µM | ≥ 10 µM | ≥ 10 µM | ≥ 10 µM |
| Cn1cc(Nc2cc(-c3cnn(C4CN(C(=O)CC(F)(F)F)C4)c3)ccn2)cn1 [TDM-180636, 3,3,3-trifluoro-1-(3-(4-(2-((1-methyl-1H-pyrazol-4-yl)amino)pyridin-4-yl)-1H-pyrazol-1-yl)azetidin-1-yl)propan-1-one] | ≥ 10 µM | ≥ 10 µM | ≥ 10 µM | ≥ 10 µM |
| Cn1cc(Nc2nccc(-c3cnn(C4CN(C(=O)CO)C4)c3)n2)cn1 [TDM-180672, 2-hydroxy-1-(3(4-(2-((1-methyl-1H-pyrazol-4-yl)amino)pyrimidin-4-yl)-1H-pyrazol-1-yl)azetidin-1-yl)ethanone] | ≥ 10 µM | ≥ 10 µM | ≥ 10 µM | ≥ 10 µM |
| Cn1cc(Nc2nccc(-c3cnn(C4CN(C(=O)CC#N)C4)c3)n2)cn1 [TDM-180671, 3-(3-(4-(2-((1-methyl-1H-pyrazol-4-yl)amino)pyrimidin-4-yl)-1H-pyrazol-1-yl)azetidin-1-yl)-3-oxopropanenitrile] | ≥ 10 µM | ≥ 10 µM | ≥ 10 µM | ≥ 10 µM |
| CCCS(=O)(=O)N1CCC(n2cc(-c3ccnc(Nc4cnn(C)c4)n3)cn2)CC1 [TDM-180675, N-(1-methyl-1H-pyrazol-4-yl)-4-(1-(1-(propylsulfonyl)piperidin-4-yl)-1H-pyrazol-4-yl)pyrimidin-2-amine] | ≥ 10 µM | ≥ 10 µM | 1 to 10 µM | ≥ 10 µM |
| Cn1cc(Nc2nccc(-c3cnn(C4CCN(C(=O)CC#N)CC4)c3)n2)cn1 [TDM-180680, 3-(4-(4-(2-((1-methyl-1H-pyrazol-4-yl)amino)pyrimidin-4-yl)-1H-pyrazol-1-yl)piperidin-1-yl)3-oxopropanenitrile] | ≥ 10 µM | ≥ 10 µM | ≥ 10 µM | ≥ 10 µM |
| Cn1cc(Nc2cc(-c3cnn(C4CN(C(=O)CO)C4)c3)ccn2)cn1 [TDM-180644, 2-hydroxy-1-(3-(4-(2-((1-methyl-1H-pyrazol-4-yl)amino)pyridin-4-yl)-1H-pyrazol-1-yl)azetidin-1-yl)ethan-1-one] | ≥ 10 µM | ≥ 10 µM | ≥ 10 µM | ≥ 10 µM |
| Cn1cc(Nc2nccc(-c3cnn(C4CCN(C(=O)CC#N)C4)c3)n2)cn1 (stereo not drawn) [TDM-180653, 3-(3-(4-(2-((1-methyl-1H-pyrazol-4-yl)amino)pyrimidin-4-yl)-1H-pyrazol-1-yl)pyrrolidin-1-yl)-3-oxopropanenitrile] | ≥ 10 µM | ≥ 10 µM | 1 to 10 µM | 1 to 10 µM |
| CCCS(=O)(=O)N1CCC(n2cc(-c3ccnc(Nc4cnn(C)c4)n3)cn2)C1 (stereo not drawn) [TDM-180648, N-(1-methyl-1H-pyrazol-4-yl)-4-(1-(1-(propylsulfonyl)pyrrolidine-3-yl)-1H-pyrazol-4-yl)pyrimidin-2-amine] | 1 to 10 µM | 1 to 10 µM | 1 to 10 µM | 1 to 10 µM |
| CCC(=O)N1CC(n2cc(-c3ccnc(Nc4cnn(C)c4)c3)cn2)C1 [TDM-180639, 1-(3-(4-(2-((1-methyl-1H-pyrazol-4-yl)amino)pyridin-4-y1)-1H-pyrazol-1-yl)azetidin-1-yl)propan-1-one] | ≥ 10 µM | ≥ 10 µM | ≥ 10 µM | ≥ 10 µM |
| Cn1cc(Nc2cc(-c3cnn(C4CN(C(=O)CC#N)C4)c3)ccn2)cn1 [TDM-180641, 3-(3-(4-(2-((1-methyl-1H-pyrazol-4-yl)amino)pyridin-4-yl)-1H-pyrazol-1-yl)azetidin-1-yl)-3-oxypropionitrile] | ≥ 10 µM | ≥ 10 µM | ≥ 10 µM | ≥ 10 µM |
